Experimental data taken from patent US20170173002A1, “Compositions and Methods for Treating an Infection” (CMPD LICENSING, LLC, priority 2015, published 2017).

How the values were obtained:
[1] = tested on: Aspergillus flavus; assay: Expected efficacy of antifungal agents; details: expected efficacy against Aspergillus flavus
[2] = tested on: Aspergillus fumigatus; assay: Expected efficacy of antifungal agents; details: expected efficacy against Aspergillus fumigatus
[3] = tested on: Aspergillus niger; assay: Expected efficacy of antifungal agents; details: expected efficacy against Aspergillus niger
[4] = tested on: Aspergillus terreus; assay: Expected efficacy of antifungal agents; details: expected efficacy against Aspergillus terreus
[5] = tested on: Blastomyces dermatitidis; assay: Expected efficacy of antifungal agents; details: expected efficacy against Blastomyces dermatitidis
[6] = tested on: Candida species; assay: Expected efficacy of antifungal agents; details: expected efficacy against Candida species
[7] = tested on: Coccidioides immitis; details: expected efficacy against Coccidioides immitis
[8] = tested on: Cryptococcus neoformans; assay: Expected efficacy of antifungal agents; details: expected efficacy against Cryptococcus neoformans
[9] = tested on: Histoplasma capsulatum; details: expected efficacy against Histoplasma capsulatum
[10] = tested on: Leishmania donovani; assay: Expected efficacy of antifungal agents; details: expected efficacy against Leishmania donovani
[11] = tested on: Leishmania infantum; assay: Expected efficacy of antifungal agents; details: expected efficacy against Leishmania infantum
[12] = tested on: Paracoccidioides brasiliensis; assay: Expected efficacy of antifungal agents; details: expected efficacy against Paracoccidioides brasiliensis
[13] = tested on: gram-positive staphylococci and streptococci; details: background description of the drug; cited from earlier work
[14] = tested on: Bacteroides fragilis; assay: Expected efficacy of antibiotic agents; details: expected efficacy against Bacteroides fragilis
[15] = tested on: Clostridium difficile; assay: Expected efficacy of antibiotic agents; details: expected efficacy against Clostridium difficile
[16] = tested on: Clostridium perfringens
[17] = tested on: Chlamydia pneumoniae; assay: Expected efficacy of antibiotic agents; details: expected efficacy against Chlamydia pneumoniae
[18] = tested on: Chlamydia psittaci
[19] = tested on: Chlamydia trachomatis; assay: Expected efficacy of antibiotic agents; details: expected efficacy against Chlamydia trachomatis
[20] = tested on: Mycoplasma pneumoniae; assay: Expected efficacy of antibiotic agents; details: expected efficacy against Mycoplasma pneumoniae
[21] = tested on: Acinetobacter baumannii; assay: Expected efficacy of antibiotic agents; details: expected efficacy against Acinetobacter baumannii
[22] = tested on: Acinetobacter calcoaceticus; assay: Expected efficacy of antibiotic agents; details: expected efficacy against Acinetobacter calcoaceticus
[23] = tested on: Acinetobacter lwoffii; assay: Expected efficacy of antibiotic agents; details: expected efficacy against Acinetobacter lwoffii
[24] = tested on: Bartonella bacilliformis; assay: Expected efficacy of antibiotic agents; details: expected efficacy against Bartonella bacilliformis
[25] = tested on: Bordetella pertussis; assay: Expected efficacy of antibiotic agents; details: expected efficacy against Bordetella pertussis
[26] = tested on: Brucella species
[27] = tested on: Campylobacter jejuni; assay: Expected efficacy of antibiotic agents; details: expected efficacy against Campylobacter jejuni
[28] = tested on: Citrobacter diversus; assay: Expected efficacy of antibiotic agents; details: expected efficacy against Citrobacter diversus
[29] = tested on: Citrobacter freundii; assay: Expected efficacy of antibiotic agents; details: expected efficacy against Citrobacter freundii
[30] = tested on: Enterobacter aerogenes; assay: Expected efficacy of antibiotic agents; details: expected efficacy against Enterobacter aerogenes
[31] = tested on: Enterobacter cloacae; assay: Expected efficacy of antibiotic agents; details: expected efficacy against Enterobacter cloacae
[32] = tested on: Enterobacter sakazakii; assay: Expected efficacy of antibiotic agents; details: expected efficacy against Enterobacter sakazakii
[33] = tested on: Escherichia coli; assay: Expected efficacy of antibiotic agents; details: expected efficacy against Escherichia coli
[34] = tested on: Francisella tularensis
[35] = tested on: Haemophilus ducreyi; assay: Expected efficacy of antibiotic agents; details: expected efficacy against Haemophilus ducreyi
[36] = tested on: Haemophilus influenzae; assay: Expected efficacy of antibiotic agents; details: expected efficacy against Haemophilus influenzae
[37] = tested on: Haemophilus parainfluenzae; assay: Expected efficacy of antibiotic agents; details: expected efficacy against Haemophilus parainfluenzae
[38] = tested on: Klebsiella (Calymmatobacterium) granulomatis; assay: Expected efficacy of antibiotic agents; details: expected efficacy against Klebsiella (Calymmatobacterium) granulomatis
[39] = tested on: Klebsiella oxytoca; assay: Expected efficacy of antibiotic agents; details: expected efficacy against Klebsiella oxytoca
[40] = tested on: Klebsiella pneumoniae; assay: Expected efficacy of antibiotic agents; details: expected efficacy against Klebsiella pneumoniae
[41] = tested on: Legionella pneumophila
[42] = tested on: Moraxella catarrhalis; assay: Expected efficacy of antibiotic agents; details: expected efficacy against Moraxella catarrhalis
[43] = tested on: Morganella morganii; assay: Expected efficacy of antibiotic agents; details: expected efficacy against Morganella morganii
[44] = tested on: Neisseria gonorrhoeae; assay: Expected efficacy of antibiotic agents; details: expected efficacy against Neisseria gonorrhoeae
[45] = tested on: Neisseria meningitidis; assay: Expected efficacy of antibiotic agents; details: expected efficacy against Neisseria meningitidis
[46] = tested on: Proteus mirabilis; assay: Expected efficacy of antibiotic agents; details: expected efficacy against Proteus mirabilis
[47] = tested on: Proteus vulgaris; assay: Expected efficacy of antibiotic agents; details: expected efficacy against Proteus vulgaris
[48] = tested on: Providencia rettgeri; assay: Expected efficacy of antibiotic agents; details: expected efficacy against Providencia rettgeri
[49] = tested on: Providencia stuartii; assay: Expected efficacy of antibiotic agents; details: expected efficacy against Providencia stuartii
[50] = tested on: Pseudomonas aeruginosa; assay: Expected efficacy of antibiotic agents; details: expected efficacy against Pseudomonas aeruginosa
[51] = tested on: Pseudomonas fluorescens; assay: Expected efficacy of antibiotic agents; details: expected efficacy against Pseudomonas fluorescens
[52] = tested on: Rickettsiae
[53] = tested on: Salmonella typhi; assay: Expected efficacy of antibiotic agents; details: expected efficacy against Salmonella typhi
[54] = tested on: Serratia marcescens; assay: Expected efficacy of antibiotic agents; details: expected efficacy against Serratia marcescens
[55] = tested on: Shigella boydii; assay: Expected efficacy of antibiotic agents; details: expected efficacy against Shigella boydii
[56] = tested on: Shigella dysenteriae; assay: Expected efficacy of antibiotic agents; details: expected efficacy against Shigella dysenteriae
[57] = tested on: Shigella flexneri; assay: Expected efficacy of antibiotic agents; details: expected efficacy against Shigella flexneri
[58] = tested on: Shigella sonnei; assay: Expected efficacy of antibiotic agents; details: expected efficacy against Shigella sonnei
[59] = tested on: Vibrio cholerae; assay: Expected efficacy of antibiotic agents; details: expected efficacy against Vibrio cholerae
[60] = tested on: Yersinia pestis
[61] = tested on: Corynebacterium jeikeium; assay: Expected efficacy of antibiotic agents; details: expected efficacy against Corynebacterium jeikeium
[62] = tested on: Corynebacterium urealyticum; assay: Expected efficacy of antibiotic agents; details: expected efficacy against Corynebacterium urealyticum
[63] = tested on: Diphtheroids; assay: Expected efficacy of antibiotic agents; details: expected efficacy against Diphtheroids
[64] = tested on: Enterococcus faecalis; assay: Expected efficacy of antibiotic agents; details: expected efficacy against Enterococcus faecalis
[65] = tested on: Enterococcus faecium; assay: Expected efficacy of antibiotic agents; details: expected efficacy against Enterococcus faecium
[66] = tested on: Methicillin resistant staph aureus (MRSA); assay: Expected efficacy of antibiotic agents; details: expected efficacy against Methicillin resistant staph aureus (MRSA)
[67] = tested on: Peptostreptococcus; assay: Expected efficacy of antibiotic agents; details: expected efficacy against Peptostreptococcus
[68] = tested on: Staphylococcus aureus (MSSA); assay: Expected efficacy of antibiotic agents; details: expected efficacy against Staphylococcus aureus (MSSA)
[69] = tested on: Staphylococcus epidermidis; assay: Expected efficacy of antibiotic agents; details: expected efficacy against Staphylococcus epidermidis
[70] = tested on: Streptococcus agalactiae; assay: Expected efficacy of antibiotic agents; details: expected efficacy against Streptococcus agalactiae
[71] = tested on: Streptococcus pneumoniae; assay: Expected efficacy of antibiotic agents; details: expected efficacy against Streptococcus pneumoniae
[72] = tested on: Streptococcus pyogenes; assay: Expected efficacy of antibiotic agents; details: expected efficacy against Streptococcus pyogenes
[73] = tested on: Viridans group streptococci; assay: Expected efficacy of antibiotic agents; details: expected efficacy against Viridans group streptococci
[74] = tested on: Fusarium species; assay: Expected efficacy of antifungal agents; details: expected efficacy against Fusarium species
[75] = tested on: Scedosporium apiospermum; assay: Expected efficacy of antifungal agents; details: expected efficacy against Scedosporium apiospermum

SMILES: C[C@@H]1[C@H](O)[C@@H](C)/C=C/C=C/C=C/C=C/C=C/C=C/C=C/[C@H](O[C@@H]2O[C@H](C)[C@@H](O)[C@H](N)[C@@H]2O)C[C@@H]2O[C@](O)(C[C@@H](O)C[C@@H](O)[C@H](O)CC[C@@H](O)C[C@@H](O)CC(=O)O[C@H]1C)C[C@H](O)[C@H]2C(=O)O [Amphotericin, amphotericin b]
- Efficacy [1]: yes
- Efficacy [2]: yes
- Efficacy [3]: yes
- Efficacy [4]: yes
- Efficacy [5]: yes
- Efficacy [6]: yes
- Efficacy [7]: yes
- Efficacy [8]: yes
- Efficacy [9]: yes
- Efficacy [10]: yes
- Efficacy [11]: yes
- Efficacy [12]: yes

SMILES: OC(Cn1cncn1)(Cn1cncn1)c1ccc(F)cc1F [Fluconazole]
- Efficacy [1]: yes
- Efficacy [2]: yes
- Efficacy [5]: yes
- Efficacy [6]: yes
- Efficacy [7]: yes
- Efficacy [8]: yes
- Efficacy [9]: yes

SMILES: C/C(=C\C(=O)OCCCCCCCCC(=O)O)C[C@@H]1OC[C@H](C[C@@H]2O[C@H]2[C@@H](C)[C@@H](C)O)[C@@H](O)C1O (stereo partly drawn) [Mupirocin]
- activity against gram-positive staphylococci and streptococci [13]: excellent activity

SMILES: CN[C@H](CC(C)C)C(=O)N[C@H]1C(=O)N[C@@H](CC(N)=O)C(=O)N[C@H]2C(=O)N[C@H]3C(=O)N[C@H](C(=O)N[C@H](C(=O)O)c4cc(O)cc(O)c4-c4cc3ccc4O)[C@H](O)c3ccc(c(Cl)c3)Oc3cc2cc(c3O[C@@H]2O[C@H](CO)[C@@H](O)[C@H](O)[C@H]2O[C@H]2C[C@](C)(N)[C@H](O)[C@H](C)O2)Oc2ccc(cc2Cl)[C@H]1O [Vancomycin]
- Efficacy [14]: no
- Efficacy [15]: yes
- Efficacy [16]: no
- Efficacy [17]: no
- Efficacy [18]: no
- Efficacy [19]: no
- Efficacy [20]: no
- Efficacy [21]: no
- Efficacy [22]: no
- Efficacy [23]: no
- Efficacy [24]: no
- Efficacy [25]: no
- Efficacy [26]: no
- Efficacy [27]: no
- Efficacy [28]: no
- Efficacy [29]: no
- Efficacy [30]: no
- Efficacy [31]: no
- Efficacy [32]: no
- Efficacy [33]: no
- Efficacy [34]: no
- Efficacy [35]: no
- Efficacy [36]: no
- Efficacy [37]: no
- Efficacy [38]: no
- Efficacy [39]: no
- Efficacy [40]: no
- Efficacy [41]: no
- Efficacy [42]: no
- Efficacy [43]: no
- Efficacy [44]: no
- Efficacy [45]: no
- Efficacy [46]: no
- Efficacy [47]: no
- Efficacy [48]: no
- Efficacy [49]: no
- Efficacy [50]: no
- Efficacy [51]: no
- Efficacy [52]: no
- Efficacy [53]: no
- Efficacy [54]: no
- Efficacy [55]: no
- Efficacy [56]: no
- Efficacy [57]: no
- Efficacy [58]: no
- Efficacy [59]: no
- Efficacy [60]: no
- Efficacy [61]: yes
- Efficacy [62]: yes
- Efficacy [63]: yes
- Efficacy [64]: yes
- Efficacy [65]: yes, not VRE
- Efficacy [66]: yes
- Efficacy [67]: yes
- Efficacy [68]: yes
- Efficacy [69]: yes
- Efficacy [70]: yes
- Efficacy [71]: yes
- Efficacy [72]: yes
- Efficacy [73]: yes

SMILES: C[C@@H](c1ncncc1F)[C@](O)(Cn1cncn1)c1ccc(F)cc1F [Voriconazole, voriconazole]
- Efficacy [1]: yes
- Efficacy [2]: yes
- Efficacy [3]: yes
- Efficacy [4]: yes
- Efficacy [6]: yes
- Efficacy [74]: yes
- Efficacy [75]: yes
